Measurements reported in patent US20220040236A1, “COMPOSITIONS AND METHODS OF TREATMENT OF VISION LOSS THROUGH GENERATION OF ROD PHOTORECEPTORS FROM MÜLLER GLIAL CELLS” (ICAHN SCHOOL OF MEDICINE AT MOUNT SINAI, priority 2018, published 2022).

What was measured:
Type in all cases: in vivo, mouse
Müller glial cells (MGs) = test: NMDA-induced MG proliferation, EdU incorporation in retinal flatmount preparations
Procedure: (§1) Adult mice at 4 weeks of age were anesthetized with an intraperitoneal injection of ketamine (50 mg/kg mouse body weight) and xylazine (5 mg/kg mouse body weight). Intravitreal injection was performed using a microsyringe equipped with a 33 gauge needle. The tip of the needle was passed through the sclera, at the equator and next to the dorsal limbus of the eye, into the vitreous cavity. Injection volume is 1 μl per eye for AAVs or other chemicals including NMDA (Acros Organics, 100 mM) and XAV939 (Sigma, 10 μM).
EdU solution (1 ul) was intravitreally injected into the vitreous chamber at the concentration of 1 mg/ml. Analysis of EdU incorporation was performed using Click-iT EdU Kit (Invitrogen, Grand Island, N.Y.). In brief, retinal cryostat sections or flatmount preparations were washed in PBS first for 10 min and then washed twice in PBS containing 3% BSA, followed by permeabilization in PBS containing 0.5% Triton X-100 for 20 min. After washing twice in PBS containing 3% BSA, EdU detection components were resuspended according to manufacturer's instructions and applied directly to retinal samples. The solution for each EdU reaction has a total volume of 250 μl composed of 215 μl 1× Click-iT reaction buffer, 10 μl CuSO4, 0.6 μl Alexa Fluor azide, and 25 μl 1× Reaction buffer additive. After incubation in the reaction solution for 30 minutes at room temperature, samples were washed with PBS and mounted with Fluoromount-G for detection.
To examine MG proliferation induced by neurotoxic injury in the adult mammalian retina, 200 nmol was injected NMDA into the vitreous chamber of the mouse retina at 4 weeks of age. The same dosage of NMDA was previously used to introduce retinal injury leading to MG proliferation in adult rat and mouse retina (Karl et al., Proc Natl Acad Sci USA, 2008, 105:19508-19513; Ooto et al., Proc Natl Acad Sci USA, 2004, 101:13654-13659). Anti-HuC/D immunohistochemistry was used to assay the time course of NMDA-induced cell death in the ganglion cell layer (GCL). […] To assay cell proliferation, 1 μl of 1 mg/ml of EdU, a nucleoside analog of thymidine that is incorporated into DNA during active DNA synthesis, was injected into the vitreous chamber 5 hours before tissue collection at 24, 36, 48, 60, 72, and 96 hours post-NMDA injection. NMDA-induced cell proliferation was quantified by scoring the number of EdU^+ cells/mm^2 in retinal flatmount preparations. A small number (4.7±0.8) of EdU^−1 cells appeared 36 hours post-NMDA injection. The number of EdU^−1 cells continued to increase, reaching 223.3±8.3 and 264.5±8.4 at 48 and 60 hours, respectively, before it was reduced to 5.8±1.1 at 72 hours post-NMDA injection (FIG. 2A). The EdU^−1 cells were also immunoreactive for CyclinD3 and p27^kip1 (FIG. 2B), MG-specific nuclear antigens (Dyer and Cepko, Nat Neurosci. 2000, 3:873-880).
To examine the ability of inhibition of Wnt signaling to suppress NMDA-induced MG proliferation, NMDA was co-injected with XAV939, a selective Wnt signaling antagonist (Huang et al., Nature, 2009, 461:614-620), and the number of EdU^+ cells per mm^2 in retinal flatmount preparations was quantified 60 hours post-injection, when the maximum number of EdU^+ cells were detected (FIG. 2A). […] To assay whether XAV939 treatment affects NMDA-induced retinal damage, the number of HuC/D+ cells was quantified in the GCL at 60 hours post-injection.
Lin28 is a direct transcriptional target of Wnt/β-catenin signaling. […]

[1] = system: retinal ganglion cells and amacrine cells; test: NMDA-induced cell death, anti-HuC/D immunohistochemistry in the ganglion cell layer; conditions: 36 hours post-NMDA injection, 200 nmol NMDA intravitreal
Procedure: as §1
Retinas were fixed with 4% paraformaldehyde in PBS for 30 minutes at room temperature, followed by overnight incubation at 4° C. in PBS containing 30% sucrose. […]
To examine MG proliferation induced by neurotoxic injury in the adult mammalian retina, 200 nmol was injected NMDA into the vitreous chamber of the mouse retina at 4 weeks of age. […] NMDA-induced cell proliferation was quantified by scoring the number of EdU^+ cells/mm^2 in retinal flatmount preparations. […]
To examine the ability of inhibition of Wnt signaling to suppress NMDA-induced MG proliferation, NMDA was co-injected with XAV939, a selective Wnt signaling antagonist (Huang et al., Nature, 2009, 461:614-620), and the number of EdU^+ cells per mm^2 in retinal flatmount preparations was quantified 60 hours post-injection, when the maximum number of EdU^+ cells were detected (FIG. 2A). […]

Wnt signaling pathway = test: quantitative PCR of Wnt genes, Wnt antagonists and Wnt target genes after NMDA injury
Procedure: Total RNA was extracted from retinas using TRIzol (Invitrogen, Grand Island, N.Y.) according to the manufacture's protocol. Reverse transcription (RT) was then performed at 42° C. for 2 hours in a volume of 20 μl containing 0.5 μg of oligo(dT), 1×RT buffer, 0.5 mM each deoxyribonucleotide triphosphate, 0.1 mM dithiothreitol, and 200 U of Superscript II reverse transcriptase (Invitrogen, Grand Island, N.Y.). Real-Time quantitative PCR (qPCR) was performed in triplicate with SsoFast™ EvaGreen supermix (Bio-Rad, Hercules, Calif.) using an iCycler real-time PCR detection system (Bio-Rad, Hercules, Calif.). The amplification protocol was 30 seconds at 94° C., 30 seconds at 56° C., and 30 seconds at 72° C., with a signal detection period of 7 seconds at 80° C. A melt curve analysis was performed at the end of the reaction to check the reaction specificity. Results were obtained after normalization to the expression level of the housekeeping gene, B-actin. All experiments were performed at least twice to ensure repeatable results.
To examine whether Wnt signaling is activated by NMDA-induced neurotoxic injury, quantitative PCR was performed to assay the RNA levels of Wnt genes at 3, 6, 12, 18, 24, 36, and 48 hours post-NMDA injection, relative to the PBS injected retina as a control. […] The upregulation of Wnt genes and a concomitant downregulation of WIF-1 and Dkk1 would predict activation of the canonical Wnt/β-catenin signaling pathway. Indeed, 24 hours post-NMDA injection, a 3.4-fold upregulation of CyclinD1 (Ccnd1, FIG. 2D), a target gene of the Wnt signaling pathway (Shtutman et al., Proc Natl Acad Sci USA, 1999, 96:5522-5527; Tetsu and McCormick, Nature, 1999, 398:422-426) and key regulator of the cell cycle progression from the G1 to S phase (Resnitzky et al., Mol Cell Biol. 1994, 14:1669-1679), was detected.

For `Oc1nc(-c2ccc(C(F)(F)F)cc2)nc2c1CSCC2` [XAV939], the “number of EdU+ cells per mm^2 versus NMDA injection alone” value (Müller glial cells (MGs); XAV939 co-injected with NMDA, 60 hours post-injection) was “significantly reduced”.
With `CN[C@H](CC(=O)O)C(=O)O` [NMDA] the “HuC/D+ cells remaining” value [1] was ~45%, the “RNA levels for Wnt genes (Wnt2b, Wnt8a, Wnt8b, Wnt9a, Wnt10a), upregulation” value (Wnt signaling pathway; 6-24 hours post-NMDA injection, relative to PBS injected retina) was “at least 3 fold” and the “RNA levels for WIF-1” value (Wnt signaling pathway; 12 hours post-NMDA injection) was 1.6±0.2 % of the control. For the same compound, the “RNA levels for Dkk1” value (Wnt signaling pathway; 24 hours post-NMDA injection) was 13.2±0.6 % of the control, the “upregulation of CyclinD1 (Ccnd1)” value (Wnt signaling pathway; 24 hours post-NMDA injection) was 3.4 fold and the “RNA levels of Lef1 and Axin2” value (Wnt signaling pathway; post-NMDA injection) was “significant upregulation”. For the same compound, the “number of EdU+ cells/mm^2” value (Müller glial cells (MGs); 36 hours post-NMDA injection) was 4.7±0.8 cells/mm^2, the “number of EdU+ cells/mm^2” value (Müller glial cells (MGs); 48 hours post-NMDA injection) was 223.3±8.3 cells/mm^2 and the “number of EdU+ cells/mm^2” value (Müller glial cells (MGs); 60 hours post-NMDA injection) was 264.5±8.4 cells/mm^2. For the same compound, the “number of EdU+ cells/mm^2” value (Müller glial cells (MGs); 72 hours post-NMDA injection) was 5.8±1.1 cells/mm^2.
